The text below walks through data of article PMC6776084 (ChemMedChem, 2009).

Data set [1] deals with cellular thymidine kinase (TK). The conditions noted are these: cited from earlier work.
The subject of the next data set is HIV. The conditions noted are these: qualitative; cited from earlier work.
Data set [2] deals with HIV-1 based vector containing wild-type (wt) HIV-1 RT. As to conditions: for EC50: read-out: EC50(HOS), HOS cells, 48 h, wt HIV-1 RT vector.
In another data set the test system is HOS-313 cells. The class given is cell-based, human. As to conditions: read-out: CC50(HOS-313), absence of virus, ATP level.
Data set [3] deals with HIV-1 based vector containing wild-type (wt) HIV-1 RT. The class given is cell-based. The conditions noted are these: for EC50: read-out: EC50(HOS-313), HOS-313 cells (HSV-1 TK), 48 h, wt HIV-1 RT vector.

Molecules are shown by their SMILES. Read-outs that look alike come from different tables or passages of the source.

In the case of `Cc1cn([C@H]2C[C@H](N=[N+]=[N-])[C@@H](CO)O2)c(=O)[nH]c1=O` [AZT], in data set [1] (qualitative), the “Affinity for cellular thymidine kinase (TK)” value is given as “equivalent to that of thymidine itself”.
Take `Cc1cn([C@@]23C=C[C@@H](CO)[C@@H]2C3)c(=O)[nH]c1=O` [Compound 6a, 1-((1′S, 4′R, 5′S)-4-(Hydroxymethyl)bicyclo[3.1.0]hex-2-en-1-yl)-5-methylpyrimidine-2,4(1H,3H)-dione]: the Anti-HIV activity result in the data set on HIV-1 was “inactive”.
`Cc1cn([C@H]2C[C@H](O)[C@]3(CO)C[C@H]23)c(=O)[nH]c1=O` [Compound 3a, North-methanocarbathymidine]: the Anti-HIV activity entry with HIV was “inactive”.
What is called CC50 is the concentration that lowers cell viability or growth by half. A word on the EC50: it is the midpoint of the concentration-response curve. For `Nc1ncnc2c1ncn2[C@H]1C=C[C@]2(CO)C[C@H]12` [Compound 4c, ((1′R, 4′S, 5′S)-4-(6-Amino-9H-purin-9-yl)bicyclo[3.1.0]hex-2-en-1-yl)methanol], the CC50 with HOS cells (read-out: CC50(HOS), HOS cells, absence of virus, ATP level) was 423 µM; with HOS-313 cells it was 246 µM. In data set [2], the “Selectivity index (cytotoxicity versus infectivity), HOS cells” value is 25 fold. Moreover, the concentration for a half-maximal effect (EC50) stood at 16.7 µM in data set [2] and 11.1 µM in data set [3]. In addition, the Anti-HIV activity entry in the data set with HIV-1 is “active”.
Take `Nc1nc2c(ncn2[C@@]23C=C[C@@H](CO)[C@@H]2C3)c(=O)[nH]1` [Compound 6b, 2-Amino-9-((1′S, 4′R, 5′S)-4-(hydroxymethyl)bicyclo[3.1.0]hex-2-en-1-yl)-1H-purin-6(9H)-one]: in the data set on HIV-1, the Anti-HIV activity entry is “inactive”.
Turning to `Nc1ccn([C@H]2C=C[C@]3(CO)C[C@H]23)c(=O)n1` [Compound 4d, 4-Amino-1-((1′S, 2′S, 5′R)-5-(hydroxymethyl)bicyclo[3.1.0]hex-3-en-2-yl)pyrimidin-2(1H)-one], the “Cytotoxicity (qualitative)” value with HOS cells was “relatively non-toxic”. Moreover, in the data set with HIV-1, the Anti-HIV activity entry was “inactive”.
Turning to `Cc1cn([C@H]2C=C[C@@H](CO)O2)c(=O)[nH]c1=O` [Compound D4T, stavudine], the “Phosphorylation by cellular thymidine kinase (TK), less efficient than for AZT” value in data set [1] is given as 500 fold.
For `Nc1ncnc2c1ncn2[C@@]12C=C[C@@H](CO)[C@@H]1C2` [Compound 6c, ((1′S, 2′R, 5′S)-5-(6-Amino-9H-purin-9-yl)bicyclo[3.1.0]hex-3-en-2-yl)methanol], the Anti-HIV activity entry with HIV-1 was “inactive”.
As to `Nc1ccn([C@@]23C=C[C@@H](CO)[C@@H]2C3)c(=O)n1` [Compound 6d, 4-Amino-1-((1′S, 4′R, 5′S)-4-(hydroxymethyl)bicyclo[3.1.0]hex-2-en-1-yl)pyrimidin-2(1H)-one], in data set [2], the “Selectivity index (cytotoxicity versus infectivity), HOS cells” value turned out to be 15.8 and the EC50 turned out to be 26.8 µM. In the data set with HIV-1, the Anti-HIV activity entry is given as “+/− active”. In data set [3], the “Selectivity index, HOS-313 cells” value is on record as 130 and the concentration for a half-maximal effect (EC50) was 3 µM.
